Measured values published in patent US8540966B2, “Contrast agents endowed with high relaxivity” (Bracco Imaging S.p.A., priority 2004, dated 2013).
Blank lines part the entries; values can stand above or below the molecule they belong to.

Key:
[1] = Relaxivity determination (r1p) at 20 MHz, 298K, pH 7; type: physicochemical
Protocol: As far as the relaxation enhancement property is concerned, a paramagnetic Gd(III) complex is characterized by its relaxivity (r1p) which represents the increase of the proton relaxation rate of an aqueous solution of the Gd(III) complex in comparison to the proton relaxation rate of neat water (R1°). The relaxivity is usually measured at 298K and 20 MHz (0.5 T).
In order to best evaluate the relaxivity properties and the parameters affecting the relaxivity of the agents of the invention, some comparative tests have been performed. In a first experiment, the relaxivity of a number of Gd-based chelated compounds having different molecular weight, all derived from the following [Gd(DTPA-monophosphonate)]^3− basic backbone structure (r1p at 20 MHz and 298K: 6.1 mM^−1 s^−1) of formula
Tested compounds include the Gd-complex of the chelating compounds 1b and 2b of the invention (hereinafter Gd-1b and Gd-2b) as well as a number of different derivatives of the aforementioned backbone moiety selected in order to cover a range of molecular weights of up to about 1800 Dalton. The relaxivity of all of the tested compounds were measured at 298K and 20 MHz and pH 7. The obtained values, listed in table 5 below (together with the structure of the compounds) have also been plotted against the MW of the complexes (see FIG. 1).
A second experiment was performed to test the relaxivity of different compounds of the invention, marketed NSA, known LDA and other systems, all containing one coordinated water molecule (q=1). The data were registered at 298K and 20 MHz and pH=7, and plotted against their corresponding MW. Relaxivity data relating to LDA P760 and P792 (LDA contrast agents) are based on literature cited below.
(§1) Conversely, the relaxivity improvement shown by the blood pool agent rapidly falls dawn over the same range of magnetic field strength. In addition to the above, please find below as per table 7, other relaxivity values, measured as above indicated, for some other representative compounds of the invention.

[2] = 1/T1 NMRD profiles: relaxivity over a range of magnetic field strength; type: physicochemical; details: from 0.2 to 3 MHz; 25° C., 1 mM aqueous solution (FIG. 6)
Protocol: As an example, the relaxivity profile of the gadolinium complex of the chelating ligand of the invention 2b (hereinafter referred to as Gd-2b), in the above magnetic field range, has been compared with that of a marketed NSA, i.e. Magnevist®, and that of a blood pool agent, i.e. the macromolecular adduct between Gd-DTPA(BOM)3 and BSA (Bovine Serum Albumin) (FIG. 6).
The corresponding profile for the above blood pool agent is quite different.
A further test was performed in which the relaxivity values r1p, shown by the compounds of the invention as measured at 20 MHz and 298K, were plotted against the molecular reorientational values τR of the same compounds. The stability of the relaxivity properties shown by the compounds of the invention was tested. In a first experiment, the 1/T1 NMRD profiles for some compounds of the invention were acquired over a range of magnetic field strengths ranging from 0.01 to 130 MHz. […]
as §1

[3] = 298K, 20 MHz, pH=7, q=1 complexes (Table 6)
[4] = 298K, 20 MHz, pH 7, q=1 Gd complexes derived from the DTPA-monophosphonate backbone (Table 5)
[5] = measured as above indicated: 298K, 20 MHz (Table 7)

Molecule: O=C(O)CN(CCN(CCN(CC(=O)O)[C@@H](COCc1ccccc1)C(=O)O)CP(=O)(O)O)[C@@H](COCc1ccccc1)C(=O)O [B 22666]
- R1p (relaxivity) [1, 4]: 7.9 mM⁻¹ s⁻¹

Molecule: O=C(O)CN(CCN(CC(=O)O)CC(=O)O)CCN(CC(=O)O)CC(=O)O [Gd-DTPA]
- R1p (relaxivity) [1, 3]: 4.7 mM⁻¹ s⁻¹

Molecule: CC1(N(CC(=O)O)CC(=O)O)CN(C(CCC(=O)N(CCN(CCC(=O)NC(CO)(CO)CO)CCC(=O)NC(CO)(CO)CO)CCN(CCC(=O)NC(CO)(CO)CO)CCC(=O)NC(CO)(CO)CO)C(=O)O)CCN(C(CCC(=O)N(CCN(CCC(=O)NC(CO)(CO)CO)CCC(=O)NC(CO)(CO)CO)CCN(CCC(=O)NC(CO)(CO)CO)CCC(=O)NC(CO)(CO)CO)C(=O)O)C1 (stereo not drawn) [Gd-15a]
- R1p (relaxivity) [1, 5]: 16.7 mM⁻¹ s⁻¹

Molecule: O=C(O)CN1CCN(CC(=O)O)CCN(CC(=O)O)CCN(CC(=O)O)CC1 [Gd-DOTA]
- R1p (relaxivity) [1, 3]: 4.7 mM⁻¹ s⁻¹

Molecule: O=C(CC[C@@H](C(=O)O)N1CCN([C@@H](CCC(=O)NC(COC2OC(CO)C(O)C(O)C2O)(COC2OC(CO)C(O)C(O)C2O)COC2OC(CO)C(O)C(O)C2O)C(=O)O)CCN([C@@H](CCC(=O)NC(COC2OC(CO)C(O)C(O)C2O)(COC2OC(CO)C(O)C(O)C2O)COC2OC(CO)C(O)C(O)C2O)C(=O)O)CCN([C@@H](CCC(=O)NC(COC2OC(CO)C(O)C(O)C2O)(COC2OC(CO)C(O)C(O)C2O)COC2OC(CO)C(O)C(O)C2O)C(=O)O)CC1)NC(COC1OC(CO)C(O)C(O)C1O)(COC1OC(CO)C(O)C(O)C1O)COC1OC(CO)C(O)C(O)C1O (stereo partly drawn) [Gd-7c]
- R1p (relaxivity) [1, 5]: 20.4 mM⁻¹ s⁻¹

Molecule: O=C(O)CN(CCN(CCN(CC(=O)O)[C@@H](Cc1c[nH]c2ccccc12)C(=O)O)CP(=O)(O)O)C(Cc1c[nH]c2ccccc12)C(=O)O (stereo partly drawn) [B 22836]
- R1p (relaxivity) [1, 4]: 7.9 mM⁻¹ s⁻¹

Molecule: O=C(O)CCC(C(=O)O)N1CCN(Cc2cccc(C(=O)NCC(CNC(=O)C(O)C(O)C(O)C(O)CO)(CNC(=O)C(O)C(O)C(O)C(O)CO)CNC(=O)C(O)C(O)C(O)C(O)CO)c2)CCN(C(CCC(=O)O)C(=O)O)CCN(C(CCC(=O)O)C(=O)O)CC1 (stereo not drawn) [Gd-1d]
- R1p (relaxivity) [1, 5]: 24 mM⁻¹ s⁻¹

Molecule: Gd-DTPA
- relaxivity profile versus field strength [2]: quite stable though very low

Molecule: O=C(O)CN(CCN(CCN(CC(=O)O)[C@@H](Cc1ccccc1)C(=O)O)CP(=O)(O)O)[C@@H](Cc1ccccc1)C(=O)O [B 22606]
- R1p (relaxivity) [1, 4]: 7.7 mM⁻¹ s⁻¹

More lines, now with the values ahead:

- R1p (relaxivity) [1, 3]: 6.5 mM⁻¹ s⁻¹
Molecule: O=C(O)CN1CCN(C(COCc2ccccc2)C(=O)O)CCN(CC(=O)O)CCN(C(COCc2ccccc2)C(=O)O)CC1 (stereo not drawn) [Compound B19236]

- R1p (relaxivity) [1, 3]: 5.5 mM⁻¹ s⁻¹
Molecule: O=C(O)CN1CCN(CC(=O)O)CCN(C(COCc2ccccc2)C(=O)O)CCN(CC(=O)O)CC1 (stereo not drawn) [Compound B19106]

- R1p (relaxivity) [1, 3]: 7.5 mM⁻¹ s⁻¹
Molecule: O=C(O)CN1CCN(C(COCc2ccccc2)C(=O)O)CCN(C(COCc2ccccc2)C(=O)O)CCN(C(COCc2ccccc2)C(=O)O)CC1 (stereo not drawn) [Compound B19406]
